Measured values from US8980792B2, “Compositions comprising abscisic acid and a fungicidally active compound” (Syngenta Participations AG, priority 2010, dated 2015).

Test system: Mycosphaerella graminicola (Septoria tritici)
Assay: Septoria tritici leaf spot on wheat, preventative foliar spray test
Format: in vivo
Description: Mycosphaerella graminicola (Septoria tritici)/Wheat/Preventative (Septoria tritici Leaf Spot on Wheat)
The isopyrazam is formulated as an emulsion concentrate formulation and mixed with water to form a stock solution and ultrasonically agitated in order to achieve homogeneous distribution. Spray solutions are made up from the stock solution by dilution in water/isopropanol (10% isopropanol v/v), with abscisic acid added where needed as a tank mix to the diluted stock solution, and mechanically stirred just before spraying. Foliar application is at 200 L/ha using an application device spraying with a single nozzle (Lechler type) 60 cm above the plants. Typically two-week old wheat plants cv. Riband are sprayed with the spray solution in the spray chamber of the application device. The test plants are inoculated by spraying a spore suspension on them one day after application. After an incubation period of 1 day at typically 22° C./21° C. (day/night) and 95% rh, the inoculated test plants are kept at typically 22° C./21° C. (day/night) and 70% rh in a greenhouse. Percentage efficacy is assessed by direct visual comparison to untreated check plants when an appropriate level of disease appears on the untreated checks (typically 14-19 days after application).

CC1=CC(=O)CC(C)(C)[C@@]1(O)/C=C/C(C)=C\C(=O)O [Abscisic acid]
% Disease Control (abscisic acid 0.0025 % w/v alone, foliar spray 200 L/ha, wheat): 0% | % Disease Control (abscisic acid 0.0238 % w/v alone, foliar spray 200 L/ha, wheat): 0%

CC(C)C1C2CCC1c1c(NC(=O)c3cn(C)nc3C(F)F)cccc12 (stereo not shown) [Isopyrazam]
% Disease Control (isopyrazam 2.44 mg/ml alone): 3% | % Disease Control (isopyrazam 9.77 mg/ml alone): 10% | % Disease Control (isopyrazam 39.06 mg/ml alone): 50% | % Disease Control (isopyrazam 156.25 mg/ml alone): 67% | % Disease Control (isopyrazam 625.00 mg/ml alone): 80%
